Assay results published in patent publication US7629439B2, “Peptides derived from the protein MMP-2, and the use thereof in antitumoral immunotherapy” (INSERM (Institut National de la Sante et de la Recherche …, priority 2003, dated 2009).

Test system: T2 cells
Assay: 51Cr release: sensitization of T2 cells to lysis by CTL clone M134.12
Assay type: cell-based
Settings: 51Cr-labeled T2 cells, 60 minutes at 37° C. with peptide, effector/target ratio 10/1, 4 hours; compared among four peptides (FIG. 4)
Experimental: These peptides were used to sensitize T2 cells labeled with ^51Cr. These cells were incubated for 60 minutes at 37° C. with various concentrations of each of the peptides to be tested. CTL M134.12 effector cells were then added at an effector cell/target cell ratio of 10/1. The amount of ^51Cr released into the supernatant is measured 4 hours later.
Along the y-axis, the percentage specific lysis.
Along the x-axis, the concentration of peptide LGLPPDVQRV (●) (SEQ ID NO: 2), GLPPDVQRV (▪) (SEQ ID NO: 1), LPPDVQRV (▴) (SEQ ID NO: 3), or GLPPDVQR(X) (SEQ ID NO: 4) in nM.

Q: How did the “sensitizing T2 cells to lysis by the CTL clone M134.12 (percentage specific lysis)” value turn out when “GLPPDVQRV (listed as Homo sapiens) [peptide derived from region 556-593 of the MMP-2 protein, presented by HLA-A*0201]” was run?
A: most effective
